Experimental data: US20190111059A1, “COMPOSITIONS AND METHODS FOR TREATING AUTISM SPECTRUM DISORDER” (Marinus Pharmaceuticals, Inc., priority 2017, published 2019)
Where a name gives a salt, the structure may show the parent alone.

System: children with non-syndromic autism spectrum disorder (ASD) and language impairment
Experiment: Randomized double-blind placebo-controlled trial: verbal communication (CELF-preschool-2, CELF-4, PLS-5), primary outcome
Type: in vivo, human
Conditions: for Verbal communication, effect size (Cohen's d) / Verbal communication, estimated effect vs placebo / Verbal communication, 12 weeks: 2 mg kg^−1 per day; for Verbal communication, effect size (Cohen's d) / Verbal communication, estimated effect vs placebo / % Difference responders (folinic acid vs placebo) / Adjusted odds ratio of response / Number needed to treat / Unadjusted odds ratio of response / % responders / Number of responders (increase in five standardized points, verbal communication): 12 weeks; for Verbal communication, estimated effect vs placebo: mixed-model regression
Experimental: We sought to determine whether high-dose folinic acid improves verbal communication in children with non-syndromic autism spectrum disorder (ASD) and language impairment in a double-blind placebo control setting. Forty-eight children (mean age 7 years 4 months; 82% male) with ASD and language impairment were randomized to receive 12 weeks of high-dose folinic acid (2 mg kg^-1 per day, maximum 50 mg per day; n=23) or placebo (n=25). Children were subtyped by glutathione and folate receptor-α autoantibody (FRAA) status. […] FRAA status was predictive of response to treatment. […] 2012 to 22 Nov. 2013. Participants who met inclusion and exclusion criteria were screened for language impairment. Preverbal (<25 functional words) children qualified as language impaired. Otherwise, the age-appropriate version of the Clinical Evaluation of Language Fundamentals (CELF) confirmed language impairment. Language impairment was defined as a core standardized score<85 if the preschool version was used or failure on the CELF screener if other versions were used. Those confirmed to have language impairment were randomized to the folinic acid or placebo group and a fasting blood sample was obtained. Randomization was performed using a random number generator with a block size of four. The research pharmacists had exclusive access to the randomization allocation. After breakfast, the participants returned for language, developmental and behavioral assessments. Following these assessments the family was given the 12 weeks of the intervention and was instructed on its administration. Language, developmental and behavioral assessments were repeated after 12 weeks of treatment. The target dose of the intervention (INN: DL folinic acid calcium salt; USAN: leucovorin calcium) was 2 mg kg^-1 per day (maximum 50 mg per day) in two equally divided doses with half of the target dose given during the first 2 weeks. Dye-free, milk-product-free, vegetarian capsules were provided in three strengths (5, 10 and 25 mg) by Lee Silsby Compounding Pharmacy (Cleveland Heights, Ohio, USA). Certificate of analysis was provided for each capsule strength by an independent analytical service (Eagle Analytical Services, Houston, Tex., USA) for each batch of capsules produced. In all cases, potency was at least 99%. Primary outcome. Verbal communication was the primary outcome for several reasons. First, verbal communication improved in preliminary folinic acid treatment studies. Second, verbal communication in children with ASD is closely linked to parental quality of life. Third, the development of language and communication skills is associated with favorable outcomes. Instruments used were the CELF-preschool-2, CELF-4 and the Preschool Language Scale-5 (PLS-5). The standardized summary score of each instrument (mean 100, standard deviation 15) was the primary outcome measure and ranges from 50 to 150 for the PLS-5 and 45 to 155 for the CELF. The ability-appropriate instrument was selected using a structured algorithm. The goal was to select an instrument with an adequate dynamic range for assessing improvement in verbal communication. The assessment started with the most age-appropriate instrument. If the child obtained a score at the floor, the next lower ability instrument was then used. This process was repeated until a score above the floor could be obtained. The score from the final instrument was the primary outcome measure at baseline and at trial end. If the child's age exceeded the maximum age of the instrument's standardization, the maximum standardized age was used. At trial end, all instruments used during the baseline assessment were repeated in the same order to simulate the same baseline assessment experience and to minimize a potential confounder of cognitive fatigue. Studies have shown that early behavioral therapy improves verbal communication by one-standard deviation over 36 weeks. […]

[1] = antibody negative, folinic acid N = 10
[2] = antibody positive, folinic acid N = 13
[3] = glutathione high, folinic acid N = 14
[4] = glutathione low, folinic acid N = 9

Nc1nc2c(c(=O)[nH]1)N(C=O)C(CNc1ccc(C(=O)N[C@@H](CCC(=O)O)C(=O)O)cc1)CN2 (mixture of isomers) [Folinic acid, DL folinic acid calcium salt]
Verbal communication, effect size (Cohen's d) (FRAA antibody negative N=17): 0.30 | Verbal communication, estimated effect vs placebo (FRAA antibody negative N=17, calcium salt): 2.5 standardized score | Verbal communication, estimated effect vs placebo (FRAA antibody negative N=17, listed as folinic acid, calcium salt): not significantly different | Verbal communication, effect size (Cohen's d) (FRAA antibody positive N=31): 0.91 | Verbal communication, estimated effect vs placebo (FRAA antibody positive N=31, calcium salt): 7.3 standardized score | Verbal communication, effect size (Cohen's d) (glutathione redox ratio high N=24): 0.46 | Verbal communication, estimated effect vs placebo (glutathione redox ratio high N=24, calcium salt): 3.0 standardized score | Verbal communication, estimated effect vs placebo (glutathione redox ratio high N=24, listed as folinic acid, calcium salt): not significantly different | Verbal communication, effect size (Cohen's d) (glutathione redox ratio low N=24): 0.95 | Verbal communication, estimated effect vs placebo (glutathione redox ratio low N=24, calcium salt): 9.1 standardized score | Verbal communication, estimated effect vs placebo (glutathione redox ratio low N=24, listed as folinic acid, calcium salt): significantly greater | Verbal communication, effect size (Cohen's d) (overall N=48): 0.70 | Verbal communication, estimated effect vs placebo (overall N=48, calcium salt): 5.7 standardized score | Verbal communication, 12 weeks (FRAA antibody negative, baseline 57.9): 64.5 standardized score | Verbal communication, 12 weeks (FRAA antibody positive, baseline 58.1): 66.1 standardized score | Verbal communication, 12 weeks (glutathione redox ratio high, baseline 59.2): 65.0 standardized score | Verbal communication, 12 weeks (glutathione redox ratio low, baseline 56.1): 66.0 standardized score | Verbal communication, 12 weeks (overall, baseline 58.1): 65.4 standardized score | % Difference responders (folinic acid vs placebo) (antibody negative): 21% | Adjusted odds ratio of response (antibody negative): 3.6 | Number needed to treat (antibody negative): 4.7 | Unadjusted odds ratio of response (antibody negative): 2.5 | % responders [1]: 50% | Number of responders (increase in five standardized points, verbal communication) [1]: 5 | % Difference responders (folinic acid vs placebo) (antibody positive): 55% (19%, | Adjusted odds ratio of response (antibody positive): 67.4 | Number needed to treat (antibody positive): 1.8 | Unadjusted odds ratio of response (antibody positive): 11.7 | % responders [2]: 77% | Number of responders (increase in five standardized points, verbal communication) [2]: 10 | % Difference responders (folinic acid vs placebo) (glutathione high): 34% (−4%, | Adjusted odds ratio of response (glutathione high): 21.9 | Number needed to treat (glutathione high): 2.9 | Unadjusted odds ratio of response (glutathione high): 4.2 | % responders [3]: 64% | Number of responders (increase in five standardized points, verbal communication) [3]: 9 | % Difference responders (folinic acid vs placebo) (glutathione low): 47% (10%, | Adjusted odds ratio of response (glutathione low): 10.2 | Number needed to treat (glutathione low): 2.1 | Unadjusted odds ratio of response (glutathione low): 8.0 | % responders [4]: 67% | Number of responders (increase in five standardized points, verbal communication) [4]: 6 | Adjusted odds ratio of response (overall): 14.9 | Number needed to treat (overall): 2.4 | Unadjusted odds ratio of response (overall): 5.9 | % responders (overall, folinic acid N = 23): 65% | Number of responders (increase in five standardized points, verbal communication) (overall, folinic acid N = 23): 15 | % Difference responders (folinic acid vs placebo) (overall, calcium salt): 41% (13%, | % Difference responders (folinic acid vs placebo) (overall, listed as folinic acid, calcium salt): significantly more responders
